Measured values: patent US7351693B2, “Peptides and nucleic acids of the cathelicidin family, derived from fish, and uses thereof” (priority 2002, dated 2008)
Numbered stars: 1 amine (or outer) side, 2 acyl side, 3 side chain; on linkers, the order of the positions; unused ones are H or OH. Bridge positions count the residues as written; N and C are the ends. Square brackets hold non-standard residues; d marks the D form. Peptide text beside a SMILES is read from it. I, II: the chains in the order shown. Actinocin(9to1) = Cc1c2oc3c(C)ccc(C(=O)[*:1])c3nc-2c(C(=O)[*:2])c(N)c1=O; NMeV = CN[C@H](C(=O)O)C(C)C; Sar = CNCC(=O)O

System: trout bactenecin gene
Assay: RT-PCR analysis of trout bactenecin (cathelicidin) expression in stimulated head kidney leucocytes
Format: cell-based, rainbow trout
Details: for effect on LPS-stimulated expression of trout bactenecin: added 3 h after LPS stimulation (5 μg/ml), FIG. 14
Procedure: Rainbow trout head kidney leucocytes were obtained by disrupting the head kidney tissue through a 100 μm nylon mesh. After washing, the leucocytes were suspended in L15 medium (Gibco) and stimulated as follows: • (A) LPS time course: Cells were stimulated with 5 μg/ml of E. coli 0127:B8 lipopolysaccharide (LPS, Sigma) for different time periods (0, 0.5 h, 1 h, 2 h, 3 h, 4 h). • (B) Transcription/translation inhibition: Streptomyces actinomycin D (Sigma) at 100 ng/ml was added to the cells after 3 h of LPS induction (5 μg/ml) to inhibit transcription. Alternatively cycloheximide at 10 μg/ml was added to the cells after 3 h of LPS stimulation (as above) to inhibit translation. • (C) Different inducers: 5 μg/ml of Phytohemagglutinin (PHA, Sigma), 25 ng/ml of Phorbol Myristate Acetate (PMA, Sigma) alone, or in combination with 5×10^−7M of Calcium Ionophore (Sigma) were added to the cells for 4 h.
At the end of the relevant time period, total RNA was isolated from approximately 2×10^7 cells, with RNAzol B (Biogenesis) according to the manufacturer's instructions. The RNA was then reverse transcribed to cDNA and the product used as template in PCRs for the trout cathelicidin gene and β-actin as a positive control. The primers used for the amplification of the cathelicidin gene were fF1 (5′-[…]-3′ SEQ ID NO: 80) and R1 (5′-[…]-3′ SEQ ID NO: 81), and for the β-actin were forward (5′-ATGGAAGATGAAATCGCC-3′ SEQ ID NO: 82) and reverse (5′-TGCCAGATCTTCTCCATG-3′ SEQ ID NO: 83). The PCR reaction mix was as follows: 5 μl of phage mix, 1.5 μl 10 mM dNTPs mix, 0.125 μl of 5 units/μl Taq DNA Polymerase, 2.5 μl 10×NH4 buffer, 0.75 μl 50 mM MgCl2, 1.5 μl forward primer, 1.5 μl reverse primer and 12.125 μl of dH2O. The cycling protocol was as follows: initial melting at 94° C. for 4 min, followed by 30 cycles of 94° C. for 45 sec, 60° C. for 45 sec, 72° C. for 1 min, with a final elongation at 72° C. for 10 min. The expected size of the products was 320 bp for the cathelicidin gene and 260 bp for β-actin.

Row | SMILES | effect on LPS-stimulated expression of trout bactenecin | induction of trout bactenecin expression in leucocytes (after 4 h of induction, FIG. 13)
1 | C[C@@H]1C[C@@H]([C@H](O)CC2CC(=O)NC(=O)C2)C(=O)[C@@H](C)C1 [Cycloheximide, cycloheximide] | did not induce a superinduction | 
2 | Cc1c2oc3c(C)ccc(C(=O)N[C@@H]4C(=O)N[C@H](C(C)C)C(=O)N5CCC[C@H]5C(=O)N(C)CC(=O)N(C)[C@@H](C(C)C)C(=O)O[C@@H]4C)c3nc-2c(C(=O)N[C@@H]2C(=O)N[C@H](C(C)C)C(=O)N3CCC[C@H]3C(=O)N(C)CC(=O)N(C)[C@@H](C(C)C)C(=O)O[C@@H]2C)c(N)c1=O [actinomycin D] (I: T[dV]P[Sar][NMeV] / II: T[dV]P[Sar][NMeV]; ester I:1-I:C, II:1-II:C; linker I:N-II:N via Actinocin(9to1)) | inhibited completely | 
3 | CCCCCCCCCCCCCC(=O)O[C@@H]1[C@@H](C)[C@@]2(O)[C@@H](C=C(CO)C[C@]3(O)C(=O)C(C)=C[C@@H]23)[C@@H]2C(C)(C)[C@]12OC(C)=O [PMA, Phorbol Myristate Acetate] |  | only PMA+calcium ionophore induced expression
